Measured values published in US9486461B2, “Methods and compositions for inducing apoptosis by stimulating ER stress” (UNIVERSITY OF SOUTHERN CALIFORNIA, priority 2007, dated 2016).

What was measured:
[1] = tested on: U251 glioblastoma cells; test: TUNEL assay in cell culture, U251; type: cell-based, human; conditions: U251, 30 and 50 μmol/L, 48 hours
Procedure: U251 glioblastoma cells were treated with different drugs, and various parameters of cell growth and cell death were comparatively analyzed. As controls, cells remained either non-treated (Co) or were treated with the solvent DMSO alone. (FIG. 8A) Cells were treated with 30 or 50 μM DMC for 48 hours and the effects on cell growth/survival and on cell death were determined by various assays. […] Below the three panels, the expression levels of the ER stress indicators CHOP, GRP78, and caspase 4 at the end of the 48 hour drug treatment is shown, as determined by Western blot analysis with specific antibodies (actin served as a loading control. (FIG. 8B) Cells were treated with various concentrations of different drugs for 48 hours, as indicated, and cell death was measured with the cell death ELISA kit. (FIG. 8C) Cells were treated with DMC or various coxibs and traditional NSAIDs for 48 hours, as indicated, and cell growth and survival was determined with the conventional MTT assay (control, non-treated cells were set at 100%). MTT assays were performed in 96-well plates with the use of 3.0-8.0×10^3 cells per well as described in detail elsewhere (34). In parallel, the expression levels of CHOP and GRP78 protein were determined by Western blot analysis.
We next investigated the relationship of ER stress induction and cell death. […]

[2] = tested on: U251 glioblastoma cells; test: Colony formation assay after siRNA transfection, U251; type: cell-based, human; conditions: 48 h
Procedure: U251 glioblastoma cells were transiently transfected with si-RNA directed at GRP78 (si-GRP78) or caspase 4 (si-Casp 4). As a control, an siRNA targeted at green fluorescent protein (si-GFP) was used. […] After 48 hours of drug treatment, the drugs were removed and the fraction of surviving cells was determined by colony forming assays. Shown is the percentage of surviving cells (where the number of colonies under non-drug treated conditions was set to 100%). […] (B) In order to verify the effectiveness of the si-RNAs, Western blot analysis of the target proteins was performed. Note that the knock-down of GRP78 leads to increased levels of CHOP protein, as expected from the model of ER stress, where GRP78 signaling is upstream of CHOP.
U251 cells were transiently transfected with si-RNA directed at GRP78 (si-GRP78). As a control, an siRNA targeted at green fluorescent protein (si-GFP) was used. […] In parallel, transfected control cultures received no drug treatment or treatment with solvent (DMSO) alone. After 48 hours, the drugs were removed and the fraction of surviving cells was determined by colony forming assays over the course of 12-14 days. […]
Twenty-four hours after transfection with small interfering RNA (siRNA), the cells were seeded into six-well plates at 200 cells per well. […] Colonies were visualized by staining for 4 h with 1% methylene blue (in methanol) and then counted. […]

[3] = tested on: polyubiquitinated proteins in U251 cells; test: Western blot of polyubiquitinated proteins, U251; type: cell-based, human; conditions: U251, increasing concentrations, 24 hours
Procedure: Total cell lysates were analyzed by Western blot with specific antibodies to ubiquitin, GRP78, CHOP, and caspase 4. Actin was used as a loading control. […] Note that in the caspase 4 blots several non-specific background bands were observed (consistent with similar observations in the literature); the specific bands were identified with the use of various controls (not shown) and comparison to the literature.
Total cell lysates were prepared and analyzed by Western blot analysis as described earlier (19). Immunohistochemical analysis of protein expression in tumor tissues was performed with the use of the Vectastain avidin-biotin complex method kit (Vector Laboratories) as described previously (32). The primary antibodies were purchased from Cell Signaling Technology or Santa Cruz Biotechnology, Inc. and used according to the manufacturers' recommendations. All immunoblots and stainings were repeated at least once to confirm the results.

[4] = tested on: Tumor-associated Brain Endothelial Cells (TuBEC); test: Trypan blue exclusion, tumor-associated brain endothelial cells; type: cell-based; conditions: TMZ 300 uM and 20 uM DMC, 48 hours, then 12 days without drug
Procedure: After drug treatment the cells were incubated for another 12 days in the absence of drug, in order to determine their long-term survival; at that time cytotoxicity was evaluated using the trypan blue exclusion technique. Results are presented as number of viable cells per group.
Tumor-associated Brain Endothelial Cells (TuBEC) were treated with TMZ (300 uM) and 20 uM DMC for 48 hours. The drugs were removed and cells were incubated for another 12 days; at that time cytotoxicity was evaluated using the trypan blue exclusion technique. Results are presented as number of viable cells per group.

[5] = tested on: CHOP protein in U87 glioblastoma tumor tissue; conditions: shown previously (ref. 39); cited from earlier work

## Cc1ccc(C)c(-c2cc(C(F)(F)F)nn2-c2ccc(S(N)(=O)=O)cc2)c1 [DMC, 4-[5-(2,5-dimethylphenyl)-3-(trifluoromethyl)-1H-pyrazol-1-yl]benzenesulfonamide]
[1]
  apoptosis (TUNEL): substantially increased apoptosis
[2]; U251, 40 μM Cxb or 30 μM DMC
  cell survival when GRP78 levels were reduced by siRNA (vs si-GFP): less cell survival
[2]; U251, 60 μM Cxb or 40 μM DMC
  cell survival when caspase-4 expression was diminished by siRNA (vs si-GFP): increased
[3]
  accumulation of polyubiquitinated proteins: did not cause substantial accumulation of polyubiquitinated proteins
[4]
  susceptibility of tumor vascular endothelial cells to TMZ: increased the susceptibility
[5]
  dosage at which ER stress in tumor tissue in vivo begins to appear: > 10 mg/kg
